Data from ChEMBL document CHEMBL1151085, “Design, synthesis and SAR of RGD peptide hybrids as highly efficient inhibitors of platelet aggregation” (Bioorg Med Chem Lett, 1995).

target: not listed separately; assay: Displacement of [3H]SKF-107260 from […] integrin; set-up: species or system Homo sapiens

| Ki | Compound |
| --- | --- |
| 35000 nM | N=C(N)c1ccc(C(=O)NCCC(=O)N[C@@H](CC(=O)O)C(=O)N[C@H](Cc2c[nH]c3ccccc23)C(=O)O)cc1 (single isomer, unassigned) |
| 75000 nM | N=C(N)c1ccc(C(=O)NCCC(=O)N[C@@H](CC(=O)O)C(=O)NC(Cc2ccc(O)cc2)C(=O)O)cc1 (single isomer, unassigned) |

target: Integrin alpha-IIb/beta-3 (Homo sapiens, UniProt P05106+P08514); assay: Displacement of [3H]SKF-107260 from alpha IIb beta3 integrin; assay type: protein-complex assay
Sequence (P05106 27-788 limits assumed): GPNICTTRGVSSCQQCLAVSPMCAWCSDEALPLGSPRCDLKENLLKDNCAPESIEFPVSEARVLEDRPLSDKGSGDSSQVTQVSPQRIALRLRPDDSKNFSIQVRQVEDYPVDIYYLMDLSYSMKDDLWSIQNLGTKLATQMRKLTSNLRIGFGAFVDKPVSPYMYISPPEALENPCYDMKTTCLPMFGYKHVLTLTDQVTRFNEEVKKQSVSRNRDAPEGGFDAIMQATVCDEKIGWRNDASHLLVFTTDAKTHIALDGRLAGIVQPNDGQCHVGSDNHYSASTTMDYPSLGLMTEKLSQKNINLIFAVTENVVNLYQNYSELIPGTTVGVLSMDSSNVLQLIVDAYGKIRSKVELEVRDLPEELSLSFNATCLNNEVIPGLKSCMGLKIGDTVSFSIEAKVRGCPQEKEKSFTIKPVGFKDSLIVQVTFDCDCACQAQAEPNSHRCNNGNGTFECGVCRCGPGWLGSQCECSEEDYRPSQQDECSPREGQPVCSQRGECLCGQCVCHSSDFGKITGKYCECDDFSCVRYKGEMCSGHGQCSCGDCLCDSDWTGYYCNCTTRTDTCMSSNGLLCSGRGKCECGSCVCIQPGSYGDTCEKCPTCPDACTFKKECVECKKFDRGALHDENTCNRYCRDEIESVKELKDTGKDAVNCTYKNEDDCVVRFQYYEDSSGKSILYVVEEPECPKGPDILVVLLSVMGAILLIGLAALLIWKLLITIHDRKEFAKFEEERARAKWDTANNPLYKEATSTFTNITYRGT
Sequence (P08514 32-887 limits assumed): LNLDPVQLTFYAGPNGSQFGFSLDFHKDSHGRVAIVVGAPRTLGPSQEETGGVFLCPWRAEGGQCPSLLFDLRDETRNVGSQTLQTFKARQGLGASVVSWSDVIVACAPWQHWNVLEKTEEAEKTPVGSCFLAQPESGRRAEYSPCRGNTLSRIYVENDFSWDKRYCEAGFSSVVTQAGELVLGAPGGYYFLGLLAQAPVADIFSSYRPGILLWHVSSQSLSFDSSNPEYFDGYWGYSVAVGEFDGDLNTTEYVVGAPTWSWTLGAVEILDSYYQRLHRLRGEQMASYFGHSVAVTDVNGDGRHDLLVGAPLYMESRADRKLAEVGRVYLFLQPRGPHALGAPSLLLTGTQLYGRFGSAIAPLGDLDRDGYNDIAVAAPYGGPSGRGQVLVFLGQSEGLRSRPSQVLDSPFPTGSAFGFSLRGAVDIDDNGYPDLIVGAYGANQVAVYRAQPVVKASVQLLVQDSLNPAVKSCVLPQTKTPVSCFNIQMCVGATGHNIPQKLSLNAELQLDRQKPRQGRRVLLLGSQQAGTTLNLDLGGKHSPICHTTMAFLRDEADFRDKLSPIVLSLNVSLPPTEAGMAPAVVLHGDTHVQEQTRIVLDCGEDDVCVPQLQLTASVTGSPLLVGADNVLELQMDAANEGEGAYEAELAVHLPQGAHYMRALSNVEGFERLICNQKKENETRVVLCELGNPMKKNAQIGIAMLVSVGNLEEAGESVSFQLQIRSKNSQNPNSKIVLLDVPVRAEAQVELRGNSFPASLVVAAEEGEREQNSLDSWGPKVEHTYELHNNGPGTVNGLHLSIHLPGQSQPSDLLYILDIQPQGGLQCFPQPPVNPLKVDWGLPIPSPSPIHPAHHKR
Sequence (P08514 891-1039 limits assumed): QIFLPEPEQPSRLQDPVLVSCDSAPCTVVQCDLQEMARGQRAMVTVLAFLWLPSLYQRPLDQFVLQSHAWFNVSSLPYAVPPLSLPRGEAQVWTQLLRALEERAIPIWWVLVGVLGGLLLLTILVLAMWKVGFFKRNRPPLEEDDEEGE

| Ki | Compound |
| --- | --- |
| 2.3 nM | N=C(N)c1ccc(C(=O)NCCC(=O)N[C@@H](CC(=O)O)C(=O)N[C@H](Cc2c[nH]c3ccccc23)C(=O)O)cc1 (single isomer, unassigned) |
| 2.1 nM | N=C(N)c1ccc(C(=O)NCCC(=O)N[C@@H](CC(=O)O)C(=O)NC(Cc2ccc(O)cc2)C(=O)O)cc1 (single isomer, unassigned) |

organism: Homo sapiens; assay: In vitro for its inhibitory activity against platelet aggregation induced by ADP; assay type: functional

| Compound | IC50 |
| --- | --- |
| N=C(N)c1ccc(C(=O)NCCC(=O)N[C@@H](CC(=O)O)C(=O)N[C@H](Cc2ccc3ccccc3c2)C(=O)O)cc1 | 44 nM |
| N=C(N)Nc1ccc(C(=O)NC(Cc2ccc(O)cc2)C(=O)N[C@@H](CC(=O)O)C(=O)N[C@H](Cc2c[nH]c3ccccc23)C(=O)O)cc1 (some centres undefined) | > 50000 nM |
| N=C(N)c1ccc(C(=O)NCCCC(=O)N[C@@H](CC(=O)O)C(=O)N[C@H](Cc2c[nH]c3ccccc23)C(=O)O)cc1 | > 50000 nM |
| N=C(N)Nc1ccc(C(=O)NCCC(=O)N[C@@H](CC(=O)O)C(=O)N[C@H](Cc2ccc3ccccc3c2)C(=O)O)cc1 | 320 nM |
| N=C(N)Nc1ccc(C(=O)NCCC(=O)N[C@@H](CC(=O)O)C(=O)N[C@@H](C(=O)O)c2ccccc2)cc1 | 2900 nM |
| N=C(N)Nc1ccc(C(=O)NCCC(=O)N[C@@H](CC(=O)O)C(=O)N[C@H](CC2CCCCC2)C(=O)O)cc1 | 88 nM |
| N=C(N)Nc1ccc(C(=O)NCCC(=O)N[C@@H](CC(=O)O)C(=O)N[C@@H](Cc2ccccc2)C(=O)O)cc1 | 6100 nM |
| N=C(N)Nc1ccc(C(=O)NCCCC(=O)N[C@@H](CC(=O)O)C(=O)N[C@H](Cc2c[nH]c3ccccc23)C(=O)O)cc1 | > 50000 nM |
| N=C(N)c1ccc(C(=O)NCCC(=O)N[C@@H](CC(=O)O)C(=O)N[C@@H](Cc2ccc(O)cc2)C(=O)O)cc1 | 1200 nM |
| N=C(N)Nc1ccc(C(=O)NCC(=O)N[C@@H](CC(=O)O)C(=O)N[C@H](Cc2c[nH]c3ccccc23)C(=O)O)cc1 | 600 nM |
| N=C(N)Nc1ccc(C(=O)NCCC(=O)N[C@@H](CC(=O)O)C(=O)N[C@H](Cc2cccc3ccccc23)C(=O)O)cc1 | 770 nM |
| N=C(N)Nc1ccc(C(=O)N2CCC(C(=O)N[C@@H](CC(=O)O)C(=O)N[C@H](Cc3c[nH]c4ccccc34)C(=O)O)CC2)cc1 | 4600 nM |
| N=C(N)c1ccc(C(=O)NCCC(=O)N[C@@H](CC(=O)O)C(=O)NC(Cc2ccc(F)cc2)C(=O)O)cc1 (single isomer, unassigned) | 47 nM |

Second part, the compound after the results:

| IC50 | Compound |
| --- | --- |
| 70 nM | N=C(N)Nc1ccc(C(=O)NCCC(=O)N[C@@H](CC(=O)O)C(=O)N[C@H](Cc2c[nH]c3ccccc23)C(=O)O)cc1 |
| 710 nM | N=C(N)NCc1ccc(C(=O)NCCC(=O)N[C@@H](CC(=O)O)C(=O)N[C@H](Cc2c[nH]c3ccccc23)C(=O)O)cc1 |
| 390 nM | N=C(N)Nc1ccc(C(=O)NCCC(=O)N[C@@H](CC(=O)O)C(=O)N[C@H](Cc2ccccc2)C(=O)O)cc1 |
| 190 nM | N=C(N)Nc1ccc(C(=O)NCCC(=O)N[C@@H](CC(=O)O)C(=O)N[C@H](Cc2ccc(O)cc2)C(=O)O)cc1 |
| 1700 nM | N=C(N)Nc1ccc(C(=O)NCCC(=O)N[C@@H](CC(=O)O)C(=O)N[C@H](Cc2ccc(F)cc2)C(=O)O)cc1 |
| 26 nM | N=C(N)c1ccc(C(=O)NCCC(=O)N[C@@H](CC(=O)O)C(=O)N[C@H](Cc2c[nH]c3ccccc23)C(=O)O)cc1 (single isomer, unassigned) |
| 20 nM | N=C(N)c1ccc(C(=O)NCCC(=O)N[C@@H](CC(=O)O)C(=O)NC(Cc2ccc(O)cc2)C(=O)O)cc1 (single isomer, unassigned) |
